Laboratory results: US8057829B2, “Methods for repelling insects using sesquiterpene hydrocarbons and their derivatives” (Sterling International Inc., priority 2008, dated 2011)

Key:
[1] = test system: antennae of housefly, sand fly, and mosquitoes Aedes aegypti, Anopheles gambiae, Anopheles stephensi; test: GC-EAD antennal responses to SPME samples of clove essential oil; conditions: component of clove essential oil SPME sample; response by one or more of the insects; FIG. 1
Protocol: The GC-EAD antennal response of a female housefly (Musca domestica), sand fly (Phlebotomus papatasi), and mosquitoes including the species Aedes aegypti, Anopheles gambiae, and Anopheles stephensi were tested with clove essential oil. FIG. 1 is a simultaneous recording of GC flame ionization detection (FID) and electroantennographic detection (EAD) of the insect antennae to solid phase microextraction (SPME: CAR/PDMS) samples of clove essential oil in a 20 ml glass vial for 20 sec.
The following procedures were employed to test the EAD response of an insect antenna to a repellent compound. The GC-EAD technique provides an efficient tool for screening behaviorally active repellents. Several synthetic mixtures of potential insect repellent candidates, mostly sesquiterpene hydrocarbons and derivatives, were analyzed in splitless mode using a Varian CP-3800 GC equipped with a polar column (Innowax; 1.0 μm film thickness, 30 m×0.53 mm ID; J & W Scientific), and a 1:1 effluent splitter that allowed simultaneous flame ionization detection (FID) and EAD of the separated volatile compounds. Helium was used as the carrier gas, and the injector temperature was 220° C. The column temperature was 50° C. for 2 min, rising to 240° C. at 10° C./min, then held for 10 min. The outlet for the EAD was held in a humidified air stream flowing at 0.5 liter/min. over an antennal preparation. A glass capillary indifferent electrode filled with Beadle-Ephrussi Ringer, and grounded via a silver wire, was inserted into the severed insect's head with the antennae. A similar recording electrode connected to a high-impedance DC amplifier with automatic baseline drift compensation was placed in contact with the distal end of one antenna (Zhang et al., Chemoecology, 10:69-80 (2000)). The antennal signals were stored and analyzed on a PC equipped with a serial IDAC interface box and the program EAD ver. 2.5 (Syntech, Hilversum, The Netherlands). The compound 1-octen-3-ol (known attractant for many flies and mosquitoes) was included in most of the synthetic mixtures, as a positive control. […]

[2] = test system: antennae of housefly, sand fly, and mosquitoes (Aedes aegypti, Aedes increpitus, Anopheles gambiae); test: GC-EAD antennal responses to SPME samples of patchouli essential oil; conditions: component of patchouli essential oil SPME sample; response by one or more of the insects; FIG. 2
Protocol: The following procedures were employed to test the EAD response of an insect antenna to a repellent compound. The GC-EAD technique provides an efficient tool for screening behaviorally active repellents. Several synthetic mixtures of potential insect repellent candidates, mostly sesquiterpene hydrocarbons and derivatives, were analyzed in splitless mode using a Varian CP-3800 GC equipped with a polar column (Innowax; 1.0 μm film thickness, 30 m×0.53 mm ID; J & W Scientific), and a 1:1 effluent splitter that allowed simultaneous flame ionization detection (FID) and EAD of the separated volatile compounds. Helium was used as the carrier gas, and the injector temperature was 220° C. The column temperature was 50° C. for 2 min, rising to 240° C. at 10° C./min, then held for 10 min. The outlet for the EAD was held in a humidified air stream flowing at 0.5 liter/min. over an antennal preparation. A glass capillary indifferent electrode filled with Beadle-Ephrussi Ringer, and grounded via a silver wire, was inserted into the severed insect's head with the antennae. A similar recording electrode connected to a high-impedance DC amplifier with automatic baseline drift compensation was placed in contact with the distal end of one antenna (Zhang et al., Chemoecology, 10:69-80 (2000)). The antennal signals were stored and analyzed on a PC equipped with a serial IDAC interface box and the program EAD ver. 2.5 (Syntech, Hilversum, The Netherlands). The compound 1-octen-3-ol (known attractant for many flies and mosquitoes) was included in most of the synthetic mixtures, as a positive control.

[3] = test system: Aedes aegypti; test: Y-tube olfactometer behavioral bioassay (spatial repellency); assay type: in vivo
Protocol: (§1) Aegypti and An. stephensi, and one species of sand fly, P. papatasi. Both the mosquitoes and the sand flies used in the study were from colonies maintained at the Walter Reed Army Institute of Research, Department of Entomology, Silver Spring, Md. This Y-tube bioassay system, equipped with CO2-enriched air (ca. 1 l/min) as an attractant, was made from three clear acrylic tubes (4″ diameter; 12″ length) with symmetrical 120° angles among the three tube arms; and a screen butterfly valve on the top part of the bottom releasing tube. These spatial repellency tests were carried out during 8:00 am-12:00 pm (photophase) time period for Ae. aegypti and 1:00-5:00 pm (shifted scotophase) time period for the species of night-flying mosquitoes and sand fly in a temperature and humidity controlled testing room (23-25° C. and 20-40% RH). Female mosquitoes or sand flies were stored at ˜25-26° C., 50-89% RH, 12:12 hr. (L/D), fed with 10% sucrose solution before testing. The candidate chemical (individual or mixture) dispenser and a blank control were placed in the upper left or right arm of the Y-tube before releasing 25-40, 6 to 10 day-old female mosquitoes (or 3 to 10 day-old sand flies) into the bottom tube via a small hole. After a 30-60 sec acclimation period, the butterfly screen valve (door) on the top of the bottom tube was opened. After 10 min., the valve was closed and the numbers of mosquitoes or sand flies in each arm (including the bottom tube) were counted. In order to minimize the position effect, the same experiment was repeated once with the treatment and blank control arms shifted using a new (clean) Y-tube olfactometer and a new batch of mosquitoes/sand flies. Data from these two replicates were pooled for χ2 goodness of fit test (df=1) between the treatment and blank control.

[4] = test system: Anopheles stephensi; test: as above; assay type: in vivo
Protocol: as §1

[5] = test system: Phlebotomus papatasi; test: as above; assay type: in vivo
Protocol: as §1

[6] = test system: Aedes aegypti; test: K&D module behavioral bioassay (topical repellency, biting); assay type: in vivo
Protocol: (§2) The bioassays were conducted with a six-cell in vitro K&D module system, as disclosed in Klun and Debboun, J. Med. Entomol. 37:177-181 (2000), loaded with an “artificial blood” (CPDA+ATP) solution.
(§3) Clove essential oil, patchouli oil, and EAD-active potential repellents, β-caryophyllene, isocaryophyllene, (+)-longifolene, and their 1:1:1 mixture, plus α-guaiene, caryophyllene oxide, and a β-caryophyllene ketone, were tested using the six-cell in vitro K&D module system (Klun and Debboun, J. Med. Entomol. 37:177-181 (2000)) loaded with an “artificial blood” (CPDA+ATP) solution on both Ae. aegypti and An. stephensi in a dose-response fashion. The K&D in vitro assay system has three components: (1) a Plexiglas™ 29.7 cm.×7.1 cm K&D module composed of six adjacent cells, each designed to hold mosquitoes and each having a rectangular 3×4 cm floor hole that is opened and closed by a sliding door; (2) a Plexiglas™ six-well 29.7 cm×7.1 cm water water-bath warmed (38° C.) reservoir with six 3×4 cm wells designed to match the sliding-door openings of the K&D module base and to contain 6 mL warmed “artificial blood” wells covered with a collagen membrane; and (3) a 29.7 cm×7.1 cm'0.4 cm Teflon® separator having six rectangular openings like the K&D module. The K&D module was connected to a constant temperature water circulator at 38° C. The cells were covered with an Edicol collagen membrane strip. Nylon organdy strips with ink cell patterns were numbered and randomly treated with […] of the tested chemical in ethanol (ethanol alone as blank control), plus DEET (ca. 10 μg/cm^2) as a positive control. This treated nylon organdy strip was placed on top of the collagen membrane. The upper section of the K & D module with the six cells each containing 5 mosquitoes (5-10 d old, starved for 24 hr before testing) was placed on top of the nylon strip. The doors to the cells were slid open so the mosquitoes could be free to feed on the “artificial blood” via the collagen membrane if they were hungry. The experiments were allowed to run for 3 minutes, and the number of mosquitoes feeding (biting) in each cell was recorded. After each experiment, the nylon and collagen strips were removed. The CPDA+ATP solution was removed and allowed to dry prior to starting the next experiment. The experiments on each chemical and each mosquito species were run three times before the bottom section with circulated water was cleaned prior to use again.

[7] = test system: Anopheles stephensi; test: as above; assay type: in vivo
Protocol: as §2, §3

[8] = test system: Aedes Aegypti, Anopheles stephensi and the sand fly P. papatasi; test: Y-tube bioassay, statements pooled for the three species; assay type: in vivo, Aedes aegypti; Anopheles stephensi; Phlebotomus papatasi; conditions: clove oil ca. 10 mg/day, patchouli oil 15 mg/d, sesquiterpenes 1 to 35 mg/d release
Protocol: as §1

[9] = Aedes aegypti females, release rate per chemical (1-60 mg/day), 10 min
[10] = Anopheles stephensi females, release rate per chemical (β-Caryophyllene 10 mg/day), 10 min
[11] = Phlebotomus papatasi females, release rate per chemical, 10 min
[12] = 10 μg/cm^2, DEET values are the positive control run with the chemical

C=CCc1ccc(O)c(OC)c1 [eugenol]
GC-EAD antennal activity [1]: EAD-inactive (or weakly active)

C=C(C)[C@@H]1CC[C@H](C)C2=C(C1)[C@@H](C)CC2 [α-Guaiene, α-guaiene]
GC-EAD antennal activity [2]: elicited EAD-activity
Number of mosquitoes in each arm: Blank [3, 9]: 49
Number of mosquitoes in each arm: Bottom [3, 9]: 16
Number of mosquitoes in each arm: Repellent ([3]; Aedes aegypti females, release rate per chemical (1-60 mg/day), 10 min, two replicates pooled): 13
SAI (Spatial Activity Index) ([3]; Aedes aegypti, (Nc − Nt)/(Nc + Nt), −1 to 1, zero indicating no response): 0.58
Number of mosquitoes in each arm: Repellent ([4]; Anopheles stephensi females, release rate per chemical (1-60 mg/day; β-Caryophyllene 10 mg/day), 10 min): 6
Number of mosquitoes in each arm: Blank [4, 10]: 20
Number of mosquitoes in each arm: Bottom [4, 10]: 40
SAI (Spatial Activity Index) ([4]; Anopheles stephensi, β-Caryophyllene 10 mg/day): 0.54
SAI (Spatial Activity Index) ([5]; Phlebotomus papatasi): 0.78
Number of mosquitoes in each arm: Repellent ([5]; Phlebotomus papatasi (sand fly) females, release rate per chemical (1-35 mg/day), 10 min): 5
Number of mosquitoes in each arm: Blank [5, 11]: 41
Number of mosquitoes in each arm: Bottom [5, 11]: 17
% of biting (±SE) (N = 3) [6, 12]: 33 ± 7b %
% of biting (±SE) (N = 3) ([6]; 100 μg/cm^2): 0 ± 0a %
% of biting (±SE) (N = 3) ([6]; 500 μg/cm^2): 0 ± 0a %
% of biting (±SE) (N = 3) ([6]; 1000 μg/cm^2): 0 ± 0a %
% of biting (±SE) (N = 3) [7, 12]: 40 ± 0b %
% of biting (±SE) (N = 3) ([7]; 100 μg/cm^2): 0 ± 0a %
% of biting (±SE) (N = 3) ([7]; 500 μg/cm^2): 0 ± 0a %
% of biting (±SE) (N = 3) ([7]; 1000 μg/cm^2): 0 ± 0a %
spatial repellency, in words [8]: showed spatial repellency effects
